In patent US9675697B2 (THE REGENTS OF THE UNIVERSITY OF MICHIGAN, priority 2013, dated 2017):
Read-outs that look alike come from different tables or passages of the source.

What was measured:
BRD3 BD1 = BRD3 BD1 (Homo sapiens (Human), UniProt Q15059); test: FP competitive binding assay using Cpd. No. 350 as the probe
Description: (§6) Fluorescence Polarization (FP) competitive binding studies (see above) were carried out using the FAM labeled fluorescent probe Cpd. No. 350 to determine binding affinities of representative compounds to both BD1 and BD2 of BRD2, BRD3, and BRD4 proteins. Equilibrium dissociation constants (Id) values of Cpd. No. 350 to these six proteins were determined from protein saturation experiments by monitoring the total fluorescence polarization of mixtures composed with the fluorescent probe at a fixed concentration and proteins with increasing concentrations up to full saturation. Serial dilutions of testing protein were mixed with Cpd. No. 350 to a final volume of 200 μl in the assay buffer. […] Plates were incubated at room temperature for 30 minutes with gentle shaking to assure equilibrium. […] Kd values of Cpd.
(§7) The IC50 and Ki values of compounds were determined in a competitive binding experiment as described above. […] FP values were measured as described above. IC50 values were determined by nonlinear regression fitting of the competition curves.

BRD2 BD1 = BRD2 BD1 (Homo sapiens (Human), UniProt P25440); test: as above
Description: as §6, §7

BRD2 BD2 [1] = molecular target: T1, BRD2 BD2 (Homo sapiens (Human), UniProt P25440); test: as above
Description: as §6, §7

BRD4 BD1 = BRD4 BD1 (Homo sapiens (Human), UniProt O60885); test: as above
Description: as §6, §7

BRD2 BD2 [2] = molecular target: T1, BRD2 BD2; test: FP competitive binding assay (BRD-1F probe); conditions: for IC50: BRD-1F probe 5 nM, protein 200 nM; for Ki: BRD-1F probe, calculated from IC50
Description: (§1) The FAM labeled fluorescent probe (BRD-1F) was synthesized based on a known small-molecule BET bromodomain inhibitor. […] Final BRD-1F concentration was 5 nM. Plates were incubated at room temperature for 1-2 hours with gentle shaking to assure equilibrium.
(§2) Final probe concentration is 5 nM in all assays. […] FP values were measured as described above.

BRD4 BD2 [3] = molecular target: T2, BRD4 BD2 (Homo sapiens (Human), UniProt O60885); test: FP competitive binding assay (BRD-1F probe); conditions: for IC50: BRD-1F probe 5 nM, protein 200 nM; for Ki: BRD-1F probe, calculated from IC50
Description: as §1, §2

BRD4 BD2 [4] = molecular target: T2, BRD4 BD2; test: FP competitive binding assay using Cpd. No. 350 as the probe
Description: as §6, §7

[5] = tested on: leukemia MOLM-13 cell line; test: 4-day cell viability assay, CellTiter-Glo; format: cell-based; conditions: Homo sapiens, MOLM-13, 96 h; 4 days; read-out: Cell Growth Inhibition (IC50 (nM)) MOLM-13 Cell Line (CellTiter-Glo assay)
Description: (§3) The effect of representative BET bromodomain inhibitors on cell viability was determined in a 4-day proliferation assay. Cells were maintained in the appropriate culture medium with 10% FBS at 37° C. and an atmosphere of 5% CO2. All the cell lines were used within three months of thawing fresh vials.
(§4) Cells were seeded in 96-well flat bottom (Corning COSTAR, Corning, N.Y., cat#3595) or white opaque cell culture plates (BD Falcon, cat#353296) at a density of 3,000-10,000 cells/well in 75 μl of culture medium. Compounds were serially diluted in the appropriate medium, and 75 μl of the diluted compounds were added to the appropriate wells of the cell plate. After the addition of compounds, the cells were incubated at 37° C. in an atmosphere of 5% CO2 for 4 days. Cell viability was determined using the CellTiter-Glo® Luminescent Cell Viability Assay Kit (Promega, Madison, Wis.) for MOLM-13 cells and WST (2-(2-methoxy-4-nitrophenyl)-3-(4-nitrophenyl)-5-(2,4-disulfophenyl)-2H-tetrazolium, monosodium salt) Cell Counting-8 Kit (Dojindo Molecular Technologies, Inc., Rockville, Md.) for MDA-MB-436 cells according to the manufacturers' instructions.
For the CellTiter-Glo assay, 100 μl of CellTiter-Glo® Reagent was added to each well, and then the plates were incubated at room temperature for 10-20 minutes. The luminescent signal was measured using a Tecan Infinite M1000 multimode microplate reader (Tecan, Morrisville, N.C.). The readings were normalized to the DMSO-treated cells and the IC50 was calculated by nonlinear regression (four parameters sigmoid fitted with variable slope, least squares fit, and no constraint) analysis using the GraphPad Prism 5 software.

K562 = test: Cell growth inhibition in leukemia cell line; format: cell-based; conditions: Homo sapiens
BRD3 BD2 = BRD3 BD2 (Homo sapiens (Human), UniProt Q15059); test: FP competitive binding assay using Cpd. No. 350 as the probe
Description: as §6, §7

AML-2 = test: Cell growth inhibition in leukemia cell line; format: cell-based
Description: as §3, §4

MV4;11 = test: Cell growth inhibition in leukemia cell line; format: cell-based; conditions: Homo sapiens, MV4-11, cell growth inhibition
prostate VCaP cell line = test: Cell growth inhibition, Cell TiterGLO, 4 days; format: cell-based; conditions: treated 4 days, read-out: VCaP cells (IC50 (nM))
MOLM-13 = test: Cell growth inhibition, CellTiter-Glo, acute leukemia cell line; format: cell-based; conditions: Homo sapiens, MOLM-13, 96 h, 4 days
Description: (§5) Cell growth inhibitory activity of representative BET bromodomain inhibitors was determined using CellTiter-Glo® Luminescent Cell Viability Assay. For leukemia cell lines MV-4-11 (ATCC, Manassas, Va.) and MOLM-13 (DSMZ, Germany), cells were seeded in 96-well white opaque cell culture plates at a density of 10,000 cells/well with serially diluted compounds and incubated at 37° C. in an atmosphere of 95% air and 5% CO2 for 4 days. Cell viability was determined using the CellTiter-Glo® Luminescent Cell Viability Assay Kit (Promega, Madison, Wis.) according to the manufacture's instruction. Briefly, a volume of CellTiter-Glo® Reagent equal to the volume of cell culture medium was added to each well, and then the plates were incubated at room temperature for 10-20 minutes. The luminescent signal was measured using a Tecan Infinite M1000 multimode microplate reader (Tecan, Morrisville, N.C.). The half maximal inhibitory concentration (IC50) was calculated using the GraphPad Prism 5 software (GraphPad Software, La Jolla, Calif.).

MV-4-11 = test: as above; format: cell-based; conditions: Homo sapiens, MV4-11, 96 h, 4 days
Description: as §5

[6] = read-out: BRD3 BD1 Ki, FP, Cpd. No. 350 probe […]
[7] = read-out: BRD2 BD1 Ki, FP, Cpd. No. 350 probe […]
[8] = read-out: BRD2 BD2 Ki, FP, Cpd. No. 350 probe […]
[9] = read-out: BRD4 BD1 Ki, FP, Cpd. No. 350 probe […]
[10] = read-out: BRD4 BD2 Ki, FP, Cpd. No. 350 probe […]
[11] = read-out: BRD3 BD2 Ki, FP, Cpd. No. 350 probe […]

Sequence of BRD3 BD2 (Q15059 306-415): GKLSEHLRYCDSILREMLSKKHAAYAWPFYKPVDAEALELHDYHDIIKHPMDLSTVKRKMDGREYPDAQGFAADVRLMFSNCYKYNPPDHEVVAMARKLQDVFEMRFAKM
Sequence of BRD3 BD1 (Q15059 34-140): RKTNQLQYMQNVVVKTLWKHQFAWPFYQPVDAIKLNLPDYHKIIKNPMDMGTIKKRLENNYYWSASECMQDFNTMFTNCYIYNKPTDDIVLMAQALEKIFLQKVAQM
Sequence of BRD2 BD1 (P25440 74-180): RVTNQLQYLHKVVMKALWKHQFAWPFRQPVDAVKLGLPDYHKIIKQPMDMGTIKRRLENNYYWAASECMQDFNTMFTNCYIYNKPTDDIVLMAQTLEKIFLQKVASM
T1 sequence (P25440 344-453): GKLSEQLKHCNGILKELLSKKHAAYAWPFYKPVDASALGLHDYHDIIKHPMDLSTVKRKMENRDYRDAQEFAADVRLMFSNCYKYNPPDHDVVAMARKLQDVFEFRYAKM

COc1cc2c(cc1-c1c(C)noc1C)[nH]c1ccnc(-c3cn[nH]c3)c12
Ki (BRD3 BD1; [6]): 151 ± 20 nM | Ki (BRD2 BD1; [7]): 138 ± 8 nM | Ki (BRD2 BD2 [1]; [8]): 89.7 ± 6.4 nM | Ki (BRD4 BD1; [9]): 247 ± 29 nM | IC50 (BRD2 BD2 [2]): 286 ± 125 nM | Ki (BRD2 BD2 [2]): 42.3 ± 32 nM | IC50 (BRD4 BD2 [3]): 608 ± 244 nM | Ki (BRD4 BD2 [3]): 114 ± 87 nM | Ki (BRD4 BD2 [4]; [10]): 201 ± 5 nM | IC50 [5]: 1040 ± 158 nM | IC50 (K562): > 2000 nM | Ki (BRD3 BD2; [11]): 48.7 ± 3.3 nM | IC50 (AML-2): 217 ± 61 nM | IC50 (MV4;11): 1070 ± 195 nM

COc1cc2c(cc1-c1c(C)noc1C)[nH]c1ccncc12 [RX-7]
Ki (BRD3 BD1; [6]): 730 ± 146 nM | Ki (BRD2 BD1; [7]): 650 ± 125 nM | Ki (BRD2 BD2 [1]; [8]): 498 ± 11 nM | Ki (BRD4 BD1; [9]): 1640 ± 71 nM | IC50 (BRD2 BD2 [2]): 1350 ± 212 nM | Ki (BRD2 BD2 [2]): 366 ± 82 nM | IC50 (BRD4 BD2 [3]): 2900 nM | Ki (BRD4 BD2 [3]): 850 nM | Ki (BRD4 BD2 [4]; [10]): 824 ± 25 nM | Ki (BRD3 BD2; [11]): 241 ± 6 nM

COc1cc2c(cc1-c1c(C)noc1C)[nH]c1nc(C)nc(-c3cc(NCCN(C)C)nc4ccccc34)c12 [Cpd. No. 101]
IC50 (prostate VCaP cell line; Homo sapiens, VCaP, 96 h): 25 nM

Cc1sc2c(c1C)C(c1ccc(Cl)cc1)=N[C@@H](CC(=O)OC(C)(C)C)c1nnc(C)n1-2 [JQ1, reference compound]
IC50 (prostate VCaP cell line): 48 nM

COc1cc2c(cc1-c1c(C)noc1C)[nH]c1nc(C)nc(-c3ccnc4ccc(Cl)cc34)c12 [Cpd. No. 90]
IC50 (prostate VCaP cell line; Homo sapiens, VCaP, 96 h): 20 nM

COc1cc2c(cc1-c1c(C)noc1C)ncc1[nH]c(=O)n([C@H](C)c3ccccn3)c12 [I-BET151, reference compound]
IC50 (prostate VCaP cell line; Homo sapiens, VCaP, 96 h): 862 nM

COc1cc2c(cc1-c1c(C)noc1C)[nH]c1ccnc(-c3c(C)n[nH]c3C)c12
IC50 (MOLM-13): < 500 nM | IC50 (MV-4-11): < 100 nM | Ki (BRD2 BD1; [7]): 48.3 ± 1.3 nM | Ki (BRD2 BD2 [1]; [8]): 57.7 ± 8.1 nM | IC50 (BRD2 BD2 [2]): 92.8 ± 30.8 nM | Ki (BRD2 BD2 [2]): < 10 nM | IC50 [5]: 311 ± 12 nM

CCNC(=O)C[C@@H]1N=C(c2ccc(Cl)cc2)c2cc(OC)ccc2-n2c(C)nnc21 [I-BET762, reference compound]
IC50 (prostate VCaP cell line; Homo sapiens, VCaP, 96 h): 500 nM

COc1cc2c(cc1-c1c(C)n[nH]c1C)[nH]c1ccnc(-c3c(C)n[nH]c3C)c12 [Cpd. No. 34, 1,7-bis(3,5-dimethyl-1H-pyrazol-4-yl)-8-methoxy-5H-pyrido[4,3-b]indole]
IC50 (BRD2 BD2 [2]): 3200 nM | Ki (BRD2 BD2 [2]): 1200 nM | IC50 (BRD4 BD2 [3]): 3670 nM | Ki (BRD4 BD2 [3]): 775 nM

COc1cc2c(cc1-c1c(C)noc1C)[nH]c1ccncc12 [Cpd. No. 1, 4-(8-methoxy-5H-pyrido[4,3-b]indol-7-yl)-3,5-dimethylisoxazole]
Ki (BRD3 BD1): 14.7 ± 1 nM | Ki (BRD2 BD1): 31.6 ± 8.2 nM | Ki (BRD2 BD2 [1]): 34.5 ± 2.1 nM | Ki (BRD4 BD1): 47.8 ± 1 nM | Ki (BRD4 BD2 [4]): 70.1 ± 2 nM | IC50 [5]: 550 ± 303 nM | IC50 (K562): > 2000 nM | Ki (BRD3 BD2): 14.3 ± 0.5 nM | IC50 (AML-2): 148 ± 64 nM | IC50 (MV4;11): 178 ± 114 nM

COc1cc2c(cc1-c1c(C)noc1C)[nH]c1ncnc(-c3c(C)n[nH]c3C)c12 [Cpd. No. 38]
IC50 (MOLM-13): < 500 nM | IC50 (MV-4-11): < 100 nM

COc1cc2c(cc1-c1c(C)noc1C)[nH]c1ccnc(-c3cccnc3)c12
IC50 (BRD2 BD2 [2]): 349 nM | Ki (BRD2 BD2 [2]): 57.4 nM | IC50 (BRD4 BD2 [3]): 873 nM | Ki (BRD4 BD2 [3]): 232 nM

COc1cc2c(cc1-c1c(C)noc1C)[nH]c1ccnc(-c3ccccc3)c12
IC50 (BRD2 BD2 [2]): 255 ± 114 nM | Ki (BRD2 BD2 [2]): 34.9 ± 21.2 nM | IC50 (BRD4 BD2 [3]): 514 nM | Ki (BRD4 BD2 [3]): 83.4 nM

COc1cc2c(cc1-c1c(C)noc1C)[nH]c1nc(C)nc(-c3ccnc4ccccc34)c12 [Cpd. No. 73]
Ki (BRD3 BD1; [6]): 10.2 nM | Ki (BRD2 BD1; [7]): 15.5 nM | Ki (BRD2 BD2 [1]; [8]): 8.7 nM | Ki (BRD4 BD1; [9]): 35.3 nM | Ki (BRD4 BD2 [4]; [10]): 7.8 nM | Ki (BRD3 BD2; [11]): 2.6 nM | IC50 (prostate VCaP cell line; Homo sapiens, VCaP, 96 h): 156 nM

COc1cc2c(cc1-c1c(C)noc1C)[nH]c1ccnc(-c3c(C4CC4)n[nH]c3C)c12 [Cpd. No. 24, 4-(1-(3-cyclopropyl-5-methyl-1H-pyrazol-4-yl)-8-methoxy-5H-pyrido[4,3-b]indol-7-yl)-3,5-dimethylisoxazole]
Ki (BRD3 BD1): 38.2 ± 1 nM | Ki (BRD2 BD1): 58.4 ± 1 nM | Ki (BRD2 BD2 [1]): 92.1 ± 3.3 nM | Ki (BRD4 BD1): 116 ± 5 nM | Ki (BRD4 BD2 [4]): 134 ± 42 nM | IC50 [5]: 280 ± 35 nM | IC50 (K562): > 2000 nM | Ki (BRD3 BD2): 50.9 ± 5.8 nM | IC50 (AML-2): 173 ± 89 nM | IC50 (MV4;11): 83 ± 41 nM
